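How tested: cells in 96-well plates exposed to compound for 48 hours at five concentrations. Here, GI50 denotes the concentration required for 50% inhibition of growth. TGI marks complete inhibition of growth.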
Legend:
Assay in all cases: growth of human tumour cells (NCI), 48 h
RPMI-8226 leukemia = system: RPMI-8226 leukemia
COLO 205 colon = system: COLO 205 colon
SF-295 CNS = system: SF-295 CNS
M14 melanoma = system: M14 melanoma
HS 578T breast = system: HS 578T breast
SNB-75 CNS = system: SNB-75 CNS
NCI-H522 lung = system: NCI-H522 lung
EKVX NSCLC = system: EKVX NSCLC
HCT-15 colon = system: HCT-15 colon
CCRF-CEM leukemia = system: CCRF-CEM leukemia
SK-OV-3 ovarian = system: SK-OV-3 ovarian
A498 renal = system: A498 renal
CAKI-1 renal = system: CAKI-1 renal
SK-MEL-2 melanoma = system: SK-MEL-2 melanoma
OVCAR-8 ovarian = system: OVCAR-8 ovarian
NCI/ADR-RES ovarian = system: NCI/ADR-RES ovarian
BT-549 breast = system: BT-549 breast
RXF 393 renal = system: RXF 393 renal
ACHN renal = system: ACHN renal
SW-620 colon = system: SW-620 colon
SN12C renal = system: SN12C renal
SK-MEL-5 melanoma = system: SK-MEL-5 melanoma
MOLT-4 leukemia = system: MOLT-4 leukemia
NCI-H460 lung = system: NCI-H460 lung
NCI-H23 lung = system: NCI-H23 lung
LOX IMVI melanoma = system: LOX IMVI melanoma
U251 CNS = system: U251 CNS
HT29 colon = system: HT29 colon
UO-31 renal = system: UO-31 renal
HOP-62 NSCLC = system: HOP-62 NSCLC
PC-3 prostate = system: PC-3 prostate
SR leukemia = system: SR leukemia
KM12 colon = system: KM12 colon
HOP-92 NSCLC = system: HOP-92 NSCLC
OVCAR-5 ovarian = system: OVCAR-5 ovarian
MALME-3M melanoma = system: MALME-3M melanoma
MCF7 breast = system: MCF7 breast
OVCAR-4 ovarian = system: OVCAR-4 ovarian
UACC-62 melanoma = system: UACC-62 melanoma
HCT-116 colon = system: HCT-116 colon
UACC-257 melanoma = system: UACC-257 melanoma
HCC-2998 colon = system: HCC-2998 colon
SK-MEL-28 melanoma = system: SK-MEL-28 melanoma
NCI-H226 lung = system: NCI-H226 lung
SF-268 CNS = system: SF-268 CNS
MDA-MB-435 = system: MDA-MB-435
DU-145 prostate = system: DU-145 prostate
K-562 leukemia = system: K-562 leukemia
IGROV1 ovarian = system: IGROV1 ovarian
MDA-MB-231 breast = system: MDA-MB-231 breast
T-47D breast = system: T-47D breast
SF-539 CNS = system: SF-539 CNS
OVCAR-3 ovarian = system: OVCAR-3 ovarian
SNB-19 CNS = system: SNB-19 CNS
786-0 renal = system: 786-0 renal

COc1ccc2c(c1)c(C1(c3cn(C)c4ccc(OC)cc34)C(=O)Nc3ccc(F)cc31)cn2C
GI50 (RPMI-8226 leukemia): 6.77 µM | TGI (RPMI-8226 leukemia): > 100 µM | GI50 (COLO 205 colon): 2.62 µM | TGI (COLO 205 colon): 6.36 µM | GI50 (SF-295 CNS): 2.95 µM | TGI (SF-295 CNS): 18.3 µM | GI50 (M14 melanoma): 4.19 µM | TGI (M14 melanoma): 68.8 µM | GI50 (HS 578T breast): 9.01 µM | TGI (HS 578T breast): > 100 µM | GI50 (SNB-75 CNS): 3.09 µM | TGI (SNB-75 CNS): > 100 µM | GI50 (NCI-H522 lung): 2.67 µM | TGI (NCI-H522 lung): 7.75 µM | GI50 (EKVX NSCLC): 3.05 µM | TGI (EKVX NSCLC): > 100 µM | GI50 (HCT-15 colon): 5 µM | TGI (HCT-15 colon): > 100 µM | GI50 (CCRF-CEM leukemia): 4.56 µM | TGI (CCRF-CEM leukemia): > 100 µM | GI50 (SK-OV-3 ovarian): 12.9 µM | TGI (SK-OV-3 ovarian): > 100 µM | GI50 (A498 renal): 13.6 µM | TGI (A498 renal): 75.3 µM | GI50 (CAKI-1 renal): 2.06 µM | TGI (CAKI-1 renal): 45.3 µM | GI50 (SK-MEL-2 melanoma): 3.62 µM | TGI (SK-MEL-2 melanoma): 9.64 µM | GI50 (OVCAR-8 ovarian): 4.28 µM | TGI (OVCAR-8 ovarian): > 100 µM | GI50 (NCI/ADR-RES ovarian): 4.66 µM | TGI (NCI/ADR-RES ovarian): > 100 µM | GI50 (BT-549 breast): 10.6 µM | TGI (BT-549 breast): 50.8 µM | GI50 (RXF 393 renal): 3.74 µM | TGI (RXF 393 renal): 16.2 µM | GI50 (ACHN renal): 4.63 µM | TGI (ACHN renal): > 100 µM | GI50 (SW-620 colon): 7.48 µM | TGI (SW-620 colon): > 100 µM | GI50 (SN12C renal): 4.82 µM | TGI (SN12C renal): 31.5 µM | GI50 (SK-MEL-5 melanoma): 5.64 µM | TGI (SK-MEL-5 melanoma): 18.9 µM | GI50 (MOLT-4 leukemia): 4.57 µM | TGI (MOLT-4 leukemia): 50.1 µM | GI50 (NCI-H460 lung): 3.65 µM | TGI (NCI-H460 lung): 14.6 µM | GI50 (NCI-H23 lung): 6.06 µM | TGI (NCI-H23 lung): > 100 µM | GI50 (LOX IMVI melanoma): 4.45 µM | TGI (LOX IMVI melanoma): > 100 µM | GI50 (U251 CNS): 4.24 µM | TGI (U251 CNS): > 100 µM | GI50 (HT29 colon): 3.52 µM | TGI (HT29 colon): 23 µM | GI50 (UO-31 renal): 2.27 µM | TGI (UO-31 renal): > 100 µM | GI50 (HOP-62 NSCLC): 7.62 µM | TGI (HOP-62 NSCLC): > 100 µM | GI50 (PC-3 prostate): 3.88 µM | TGI (PC-3 prostate): > 100 µM | GI50 (SR leukemia): 5.59 µM | TGI (SR leukemia): 82 µM | GI50 (KM12 colon): 5.63 µM | TGI (KM12 colon): > 100 µM | GI50 (HOP-92 NSCLC): 3.84 µM | TGI (HOP-92 NSCLC): 58.7 µM | GI50 (OVCAR-5 ovarian): 9.94 µM | TGI (OVCAR-5 ovarian): 84.8 µM | GI50 (MALME-3M melanoma): 6.52 µM | TGI (MALME-3M melanoma): 89.5 µM | GI50 (MCF7 breast): 3.61 µM | TGI (MCF7 breast): > 100 µM | GI50 (OVCAR-4 ovarian): 3.92 µM | TGI (OVCAR-4 ovarian): > 100 µM | GI50 (UACC-62 melanoma): 7.42 µM | TGI (UACC-62 melanoma): 56.2 µM | GI50 (HCT-116 colon): 3.84 µM | TGI (HCT-116 colon): 15.3 µM | GI50 (UACC-257 melanoma): 5.28 µM | TGI (UACC-257 melanoma): > 100 µM | GI50 (HCC-2998 colon): 4.53 µM | TGI (HCC-2998 colon): > 100 µM | GI50 (SK-MEL-28 melanoma): 5.3 µM | TGI (SK-MEL-28 melanoma): 25.5 µM | GI50 (NCI-H226 lung): 11.9 µM | TGI (NCI-H226 lung): > 100 µM | GI50 (SF-268 CNS): 5.7 µM | TGI (SF-268 CNS): > 100 µM | GI50 (MDA-MB-435): 3.77 µM | TGI (MDA-MB-435): > 100 µM | GI50 (DU-145 prostate): 11.5 µM | TGI (DU-145 prostate): > 100 µM | GI50 (K-562 leukemia): 4.61 µM | TGI (K-562 leukemia): > 100 µM | GI50 (IGROV1 ovarian): 4.26 µM | TGI (IGROV1 ovarian): > 100 µM | GI50 (MDA-MB-231 breast): 2.89 µM | TGI (MDA-MB-231 breast): 18.6 µM | GI50 (T-47D breast): 4.75 µM | TGI (T-47D breast): > 100 µM | GI50 (SF-539 CNS): 15.6 µM | TGI (SF-539 CNS): 85.2 µM | GI50 (OVCAR-3 ovarian): 10.2 µM | TGI (OVCAR-3 ovarian): 87.4 µM | GI50 (SNB-19 CNS): 12.2 µM | TGI (SNB-19 CNS): > 100 µM | GI50 (786-0 renal): 6.51 µM | TGI (786-0 renal): > 100 µM
